“Also recorded” adds a separate entry of the source.

The subject of this experiment is tripeptidyl peptidase 1 (TPP1). In words: TPP1 enzyme activity in MEF lysates. In kind it is cell-based, mouse. The procedure:
Treatment with AF38469 increases PPT1 and TPP1 enzyme activity in Batten disease mouse embryonic fibroblasts. Since AF38469 increases the expression of lysosomal genes including the PPT1 and TPP1 enzymes, we asked whether AF38469 increases the overall activity levels of these enzymes in cellulo. Wild type (WT) and mutant cells were treated with vehicle or AF38469 (40 nM). Cells were plated on day 0 and dosed with drug-containing media on DIV3 and DIV5. Cells were lysed, and protein quantification and enzyme activity assay were performed on DIV7. Data was analyzed with GraphPad Prism™. Two-way ANOVA. Mean±S.E.M. Tukey's multiple comparisons test. *p<0.05, **p<0.01, ***p<0.001, ****p<0.0001. Palmitoyl-protein thioesterase 1 (PPT1) is the lysosomal enzyme mutated in CLN1 disease and removes thioester-linked fatty acyl groups from modified cysteines of substrate proteins. Tripeptidyl peptidase 1 (TPP1) is the lysosomal enzyme mutated in CLN2 disease and has broad substrate specificity against various proteins degraded in the lysosome after cleavage.
Since LM11A-31 stimulates the nuclear translocation of transcription factors responsible for lysosome biogenesis, we asked whether LM11A-31 increases the overall activity levels of lysosomalenzymes in cellulo. […] Wild type (WT) and mutant cells were treated with vehicle or LM11A-31 (100 nM). Cells were plated on day 0 and dosed with drug-containing media on DIV3 and DIV5. Cells were lysed, and protein quantification and enzyme activity assay were performed on DIV7. Data was analyzed with GraphPad Prism™. Two-way ANOVA. Mean±S.E.M. Tukey's multiple comparisons test. *p<0.05, **p<0.01, ***p<0.001, ****p<0.0001. […] Palmitoyl-protein thioesterase 1 (PPT1) is the lysosomal enzyme mutated in CLN1 disease and removes thioester-linked fatty acyl groups from modified cysteines of substrate proteins. Tripeptidyl peptidase 1 (TPP1) is the lysosomal enzyme mutated in CLN2 disease and has broad substrate specificity against various proteins degraded in the lysosome after cleavage. Mutations in the CTSD gene, encoding cathepsin d, a lysosomal protease that is involved in the recycling and degradation, is a known cause of Cln10 disease.
Since semaglutide improves lysosomal health and function across diverse cell models of lysosomal storage disorder, we asked whether the function of the lysosomes was improved. […] Additionally, a combination of semaglutide and AF38469, a sortilin inhibitor, increased overall levels of activity for both enzymes in cell lysates. Wild type (WT) and mutant cells were treated with vehicle or semaglutide (100 nM) or AF38469 (40 nM) and semaglutide (100 nM). Cells were plated on in vitro day 0 and dosed with drug-containing media on DIV3 and DIV5. Cells were lysed, and protein quantification and enzyme activity assay were performed on DIV7. Data was analyzed with GraphPad Prism™. Two-way ANOVA. Mean±S.E.M. Tukey's multiple comparisons test. *p<0.05, **p<0.01, ***p<0.001, ****p<0.0001. […] (FIG. 20A). […] Levels of TPP1 enzyme activity in Cln2^R207X were not altered by treatment of semaglutide, as was expected given the lack of a functional TPP1 protein in this model (FIG. 20B). […] Levels of TPP1 enzyme activity in Cln2^R207X were not altered by treatment of AF38469 and semaglutide, as was expected given the lack of a functional TPP1 protein in this model. n=5 wells per treatment (FIG. 20D).

Consider `Cc1cccc(NC(=O)c2ccc(C(F)(F)F)cc2C(=O)O)n1` [AF38469, 2-((6-methylpyridin-2-yl)carbamoyl)-5-(trifluoromethyl)benzoic acid], for which the TPP1 enzyme activity entry was “not altered” (AF38469 40 nM, Cln2^R207X MEFs) and “increased the overall levels of activity; also recorded: significantly increased” (AF38469 40 nM, wild type, Cln3^Δex7/8, Cln6^nclf, Cln11^−/− MEFs, DIV7).

`CC[C@H](C)[C@H](N)C(=O)NCCN1CCOCC1` [LM11A-31, N-[2-(morpholin-4-yl)ethyl]-L-isoleucinamide]: the TPP1 enzyme activity result (LM11A-31 100 nM, wild type and Cln3^Δex7/8 MEFs, DIV7) was “significantly increased”. As to semaglutide, the TPP1 enzyme activity result was “not altered” (semaglutide 100 nM, Cln2^R207X MEFs) and “significantly increased” (semaglutide 100 nM, wild type, Cln3^Δex7/8 MEFs, DIV7).

The values above are taken from patent US20240197700A1, “Methods and Compositions for Treating Lysosomal Storage Disorders” (Sanford Health, priority 2021, published 2024).
